Our source for the inhibition and IC50 values is ChEMBL document CHEMBL1765046, “Small molecule inhibitor of the RPA70 N-terminal protein interaction domain discovered using in silico and in vitro methods” (Bioorg Med Chem, 2011).

Assay [1] deals with Replication protein A 70 kDa DNA-binding subunit (Homo sapiens) (UniProt P27694). Kind of assay: Inhibition of recombinant human N-terminal domain of RPA70 DNA binding domain-F binding to 30-mer double strand DNA at <100 uM preincubated for 5mins before dsDNA addition measured after 30 mins by electrophoretic mobility shift assay.
Chain of Replication protein A 70 kDa DNA-binding subunit (Homo sapiens) (P27694 whole entry, the tested form may be a part): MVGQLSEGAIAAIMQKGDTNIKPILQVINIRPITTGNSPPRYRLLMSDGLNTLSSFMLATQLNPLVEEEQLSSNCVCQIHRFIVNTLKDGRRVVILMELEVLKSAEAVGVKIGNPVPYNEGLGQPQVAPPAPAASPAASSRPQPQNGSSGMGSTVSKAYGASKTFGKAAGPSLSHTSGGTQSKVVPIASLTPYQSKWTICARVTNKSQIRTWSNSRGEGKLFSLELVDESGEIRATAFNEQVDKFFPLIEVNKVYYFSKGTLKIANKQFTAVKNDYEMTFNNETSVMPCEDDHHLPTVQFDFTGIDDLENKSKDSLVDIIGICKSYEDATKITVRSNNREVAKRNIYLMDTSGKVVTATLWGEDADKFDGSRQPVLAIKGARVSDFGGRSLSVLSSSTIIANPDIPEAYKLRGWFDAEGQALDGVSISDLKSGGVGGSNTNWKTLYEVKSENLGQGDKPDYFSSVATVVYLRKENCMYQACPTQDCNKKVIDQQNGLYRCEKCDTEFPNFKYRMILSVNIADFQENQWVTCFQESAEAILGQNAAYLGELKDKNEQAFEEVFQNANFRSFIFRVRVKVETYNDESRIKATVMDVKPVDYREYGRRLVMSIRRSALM
Assay [2] shares this target. Kind of assay: Inhibition of recombinant human N-terminal domain of RPA70 DNA binding domain-F binding to 30-mer single strand DNA at <100 uM preincubated for 5mins before ssDNA addition measured after 30 mins by electrophoretic mobility shift assay.
Assay [3] concerns the target Cellular tumor antigen p53/Replication protein A 70 kDa DNA-binding subunit (Homo sapiens, UniProt P04637+P27694). The experiment in a line: Inhibition of GST-tagged p53/recombinant human N-terminal domain of RPA70 DNA binding domain interaction by ELISA-like plate binding assay.

Calls of active or inactive are those of the source. The rule behind the calls is not given here.

Chain of Cellular tumor antigen p53/Replication protein A 70 kDa DNA-binding subunit (P04637 whole entry, the tested form may be a part): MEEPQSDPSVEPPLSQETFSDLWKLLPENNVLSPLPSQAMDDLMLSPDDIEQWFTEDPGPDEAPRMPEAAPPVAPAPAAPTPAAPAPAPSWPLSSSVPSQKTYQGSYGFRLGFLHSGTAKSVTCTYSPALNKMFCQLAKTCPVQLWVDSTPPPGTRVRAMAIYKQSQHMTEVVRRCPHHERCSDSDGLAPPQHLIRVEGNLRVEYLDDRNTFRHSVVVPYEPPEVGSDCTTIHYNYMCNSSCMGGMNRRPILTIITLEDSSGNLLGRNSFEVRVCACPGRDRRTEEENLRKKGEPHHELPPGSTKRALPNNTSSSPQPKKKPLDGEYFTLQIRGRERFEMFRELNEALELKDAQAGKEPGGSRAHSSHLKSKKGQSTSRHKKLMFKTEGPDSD
Chain of Cellular tumor antigen p53/Replication protein A 70 kDa DNA-binding subunit (P27694 whole entry, the tested form may be a part): as the sequence (P27694 whole entry, the tested form may be a part) above

With `CC(C)C1=CC23CCC4C(C)(C(=O)O)CCCC4(C)C2CC1C(C(=O)O)C3C(=O)O` (stereo not drawn), the inhibition entry in assay [1] is “Active”. In assay [2], the inhibition entry was “inactive”. Also, the IC50 in assay [3] stood at 10 µM.
